Data reported in PubChem BioAssay (NCI).
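These data come from cells grown in 96-well plates and exposed to compound for 48 hours at five concentrations. GI50 marks 50% less growth. The concentration for full growth arrest is given as TGI.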

Tests used:
Test in all cases: DTP human tumour cell line panel, 48 h; in the data active = GI50 below about 0.43 µM; inactive = the rest
786-0 renal = system: 786-0 renal
A498 renal = system: A498 renal
A549 NSCLC = system: A549 NSCLC
ACHN renal = system: ACHN renal
BT-549 breast = system: BT-549 breast
CAKI-1 renal = system: CAKI-1 renal
CCRF-CEM leukemia = system: CCRF-CEM leukemia
COLO 205 colon = system: COLO 205 colon
DU-145 prostate = system: DU-145 prostate
HCC-2998 colon = system: HCC-2998 colon
HCT-116 colon = system: HCT-116 colon
HCT-15 colon = system: HCT-15 colon
HL-60(TB) leukemia = system: HL-60(TB) leukemia
HOP-62 NSCLC = system: HOP-62 NSCLC
HOP-92 NSCLC = system: HOP-92 NSCLC
HS 578T breast = system: HS 578T breast
HT29 colon = system: HT29 colon
IGROV1 ovarian = system: IGROV1 ovarian
K-562 leukemia = system: K-562 leukemia
KM12 colon = system: KM12 colon
LOX IMVI melanoma = system: LOX IMVI melanoma
M14 melanoma = system: M14 melanoma
MALME-3M melanoma = system: MALME-3M melanoma
MCF7 breast = system: MCF7 breast
MDA-MB-231 breast = system: MDA-MB-231 breast
MDA-MB-435 = system: MDA-MB-435
MOLT-4 leukemia = system: MOLT-4 leukemia
NCI-H226 lung = system: NCI-H226 lung
NCI-H23 lung = system: NCI-H23 lung
NCI-H460 lung = system: NCI-H460 lung
NCI-H522 lung = system: NCI-H522 lung
NCI/ADR-RES ovarian = system: NCI/ADR-RES ovarian
OVCAR-3 ovarian = system: OVCAR-3 ovarian
OVCAR-4 ovarian = system: OVCAR-4 ovarian
OVCAR-5 ovarian = system: OVCAR-5 ovarian
OVCAR-8 ovarian = system: OVCAR-8 ovarian
PC-3 prostate = system: PC-3 prostate
RPMI-8226 leukemia = system: RPMI-8226 leukemia
RXF 393 renal = system: RXF 393 renal
SF-268 CNS = system: SF-268 CNS
SF-295 CNS = system: SF-295 CNS
SF-539 CNS = system: SF-539 CNS
SK-MEL-2 melanoma = system: SK-MEL-2 melanoma
SK-MEL-28 melanoma = system: SK-MEL-28 melanoma
SK-MEL-5 melanoma = system: SK-MEL-5 melanoma
SK-OV-3 ovarian = system: SK-OV-3 ovarian
SN12C renal = system: SN12C renal
SNB-19 CNS = system: SNB-19 CNS
SNB-75 CNS = system: SNB-75 CNS
SR leukemia = system: SR leukemia
SW-620 colon = system: SW-620 colon
T-47D breast = system: T-47D breast
TK-10 renal = system: TK-10 renal
U251 CNS = system: U251 CNS
UACC-257 melanoma = system: UACC-257 melanoma
UACC-62 melanoma = system: UACC-62 melanoma
UO-31 renal = system: UO-31 renal

CC(C)CNc1nc(N=[N+]=[N-])nc(NCC(C)C)n1
inactive: GI50 (786-0 renal) > 10 µM | GI50 (A498 renal) > 10 µM | GI50 (A549 NSCLC) > 10 µM | GI50 (ACHN renal) > 10 µM | GI50 (BT-549 breast) > 10 µM | GI50 (CAKI-1 renal) > 10 µM | GI50 (CCRF-CEM leukemia) > 10 µM | GI50 (COLO 205 colon) > 10 µM | GI50 (DU-145 prostate) > 10 µM | GI50 (HCC-2998 colon) > 10 µM | GI50 (HCT-116 colon) > 10 µM | GI50 (HCT-15 colon) > 10 µM | GI50 (HL-60(TB) leukemia) > 10 µM | GI50 (HOP-62 NSCLC) > 10 µM | GI50 (HOP-92 NSCLC) 7.89 µM | GI50 (HS 578T breast) > 10 µM | GI50 (HT29 colon) > 10 µM | GI50 (IGROV1 ovarian) > 10 µM | GI50 (K-562 leukemia) > 10 µM | GI50 (KM12 colon) > 10 µM | GI50 (LOX IMVI melanoma) > 10 µM | GI50 (M14 melanoma) > 10 µM | GI50 (MALME-3M melanoma) > 10 µM | GI50 (MCF7 breast) > 10 µM | GI50 (MDA-MB-231 breast) > 10 µM | GI50 (MDA-MB-435) > 10 µM | GI50 (MOLT-4 leukemia) > 10 µM | GI50 (NCI-H226 lung) > 10 µM | GI50 (NCI-H23 lung) > 10 µM | GI50 (NCI-H460 lung) > 10 µM | GI50 (NCI-H522 lung) > 10 µM | GI50 (NCI/ADR-RES ovarian) > 10 µM | GI50 (OVCAR-3 ovarian) > 10 µM | GI50 (OVCAR-4 ovarian) > 10 µM | GI50 (OVCAR-5 ovarian) > 10 µM | GI50 (OVCAR-8 ovarian) > 10 µM | GI50 (PC-3 prostate) > 10 µM | GI50 (RPMI-8226 leukemia) > 10 µM | GI50 (RXF 393 renal) > 10 µM | GI50 (SF-268 CNS) > 10 µM | GI50 (SF-295 CNS) > 10 µM | GI50 (SF-539 CNS) > 10 µM | GI50 (SK-MEL-2 melanoma) > 10 µM | GI50 (SK-MEL-28 melanoma) > 10 µM | GI50 (SK-MEL-5 melanoma) > 10 µM | GI50 (SK-OV-3 ovarian) > 10 µM | GI50 (SN12C renal) > 10 µM | GI50 (SNB-19 CNS) > 10 µM | GI50 (SNB-75 CNS) > 10 µM | GI50 (SR leukemia) > 10 µM | GI50 (SW-620 colon) > 10 µM | GI50 (T-47D breast) > 10 µM | GI50 (TK-10 renal) > 10 µM | GI50 (U251 CNS) > 10 µM | GI50 (UACC-257 melanoma) > 10 µM | GI50 (UACC-62 melanoma) > 10 µM | GI50 (UO-31 renal) > 10 µM
> 10 µM: TGI (786-0 renal) | TGI (A498 renal) | TGI (A549 NSCLC) | TGI (ACHN renal) | TGI (BT-549 breast) | TGI (CAKI-1 renal) | TGI (CCRF-CEM leukemia) | TGI (COLO 205 colon) | TGI (DU-145 prostate) | TGI (HCC-2998 colon) | TGI (HCT-116 colon) | TGI (HCT-15 colon) | TGI (HL-60(TB) leukemia) | TGI (HOP-62 NSCLC) | TGI (HOP-92 NSCLC) | TGI (HS 578T breast) | TGI (HT29 colon) | TGI (IGROV1 ovarian) | TGI (K-562 leukemia) | TGI (KM12 colon) | TGI (LOX IMVI melanoma) | TGI (M14 melanoma) | TGI (MALME-3M melanoma) | TGI (MCF7 breast) | TGI (MDA-MB-231 breast) | TGI (MDA-MB-435) | TGI (MOLT-4 leukemia) | TGI (NCI-H226 lung) | TGI (NCI-H23 lung) | TGI (NCI-H460 lung) | TGI (NCI-H522 lung) | TGI (NCI/ADR-RES ovarian) | TGI (OVCAR-3 ovarian) | TGI (OVCAR-4 ovarian) | TGI (OVCAR-5 ovarian) | TGI (OVCAR-8 ovarian) | TGI (PC-3 prostate) | TGI (RPMI-8226 leukemia) | TGI (RXF 393 renal) | TGI (SF-268 CNS) | TGI (SF-295 CNS) | TGI (SF-539 CNS) | TGI (SK-MEL-2 melanoma) | TGI (SK-MEL-28 melanoma) | TGI (SK-MEL-5 melanoma) | TGI (SK-OV-3 ovarian) | TGI (SN12C renal) | TGI (SNB-19 CNS) | TGI (SNB-75 CNS) | TGI (SR leukemia) | TGI (SW-620 colon) | TGI (T-47D breast) | TGI (TK-10 renal) | TGI (U251 CNS) | TGI (UACC-257 melanoma) | TGI (UACC-62 melanoma) | TGI (UO-31 renal)
